In experiment [1] the test system is HL-60, SK-MEL-28, U937. Kind of experiment: Protease release assay inhibitor/adjuncts survey with Ala-Ala-Phe-AMC. Type of experiment: cell-based. As to conditions: for Comments: extent of the effect on release activity, in words. The text has this: (§1) Puromycin, E-64, Phenylmethanesulfonyl fluoride (PMSF), Adenosine 5′-triphosphate (ATP), N-(α-Rhamnopyranosyloxyhyrdoxyphosphinyl)-Leu-Trp disodium salt (Phosphoramidon), N-[(2S,3R)-3-Amino-2-hydroxy-4-phenylbutyryl-L-leucine hydrochloride (Bestatin), 1,10-Phenathroline, […], 4-(2-Aminoethyl)benzenesulfonyl fluoride (AEBSF), 1,4-Dithio-DL-threitol (DTT), Edetate disodium dihyrdrate (EDTA), Isovaleryl-L-valyl-L-valyl-[(3S,4S)-4-amino-3-hydroxy-6-methylheptanoyl]-L-alanyl[93S,4S]-4-amino-3-hydroxy-6-methylheptanoicacid (Pepstatin A), sodium chloride, Aprotinin, N-Acetyl-L-leucyl-L-leucyl-L-argininal hemisulfate salt (leupeptin) were all purchased from Sigma. Inhibitors were resuspended in DMSO to varying stock concentrations with a high target concentration of 200 μM or 200 μg/ml in Dulbecco's Phosphate Buffer Saline w/o Mg^++ or Ca^++ (DPBS) for addition to either lysates or viable cell populations. DTT, NaCl, EDTA, and ATP were also diluted in DPBS. All compounds were incubated with compromised or viable cells for a period of at least 30 minutes (most 60 minutes) at 37° C. prior to assessment of activity.
(§2) The protease retention assay inhibitor/adjuncts survey was conducted on sonicated, saponin-lysed, or viable HL-60 and/or U937 using Gly-Phe-AFC at 100 μM final concentration as described previously. The protease release assay inhibitor/adjuncts survey was conducted on sonicated, saponin-lysed, or viable HL-60, SK-MEL-28, and/or U937 using Ala-Ala-Phe-AMC or (Ala-Ala-Phe)2-Rhodamine 110.

Experiment [2] relates to HL-60 and/or U937. Put plainly: Protease retention assay inhibitor/adjuncts survey with Gly-Phe-AFC. The class given is cell-based. As to conditions: for Comments: no inhibition/no effect to (concentration): highest concentration without effect on retention activity.
Excerpt: as §1, §2

Where [3] appears, read: highest concentration without inhibition of release activity.
[4] abbreviates: on protease release activity, Ala-Ala-Phe-AMC, sonicated, saponin-lysed, or viable cells.
Where [5] appears, read: extent or nature of the effect on retention activity, in words.
Setting [6] is: on protease retention activity, Gly-Phe-AFC at 100 μM final, sonicated, saponin-lysed, or viable cells.

Where a name gives a salt, the structure may show the parent alone. Read-outs that look alike come from different tables or passages of the source. Square brackets hold non-standard residues; d marks the D form. Peptide text beside a SMILES is read from it. * marks the point of attachment. Sta = CC(C)C[C@H](N)[C@@H](O)CC(=O)O; Isovaleryl = CC(C)CC(=O)*

Regarding “Antitrypsin: Serine (trypsin-like) protease inhibitor in Table 6”, the “Comments: no inhibition to (concentration)” value in experiment [1] (setting [3]) was “to 100 ug/ml”. For the same compound, the Effect result in experiment [1] (setting [4]) was “No inhib”.

Turning to `CC(=O)N[C@@H](CC(C)C)C(=O)N[C@@H](CC(C)C)C(=O)N[C@H](C=O)CCCNC(=N)N` [Leupeptin, N-Acetyl-L-leucyl-L-leucyl-L-argininal hemisulfate salt], the “Comments: no inhibition to (concentration)” value in experiment [1] (setting [3]) is “to 100 ug/ml”. Also, the Effect result in experiment [1] (setting [4]) is “No inhib”.

For the compound `COc1ccc(C[C@H](N)C(=O)N[C@H]2[C@@H](O)[C@H](n3cnc4c(N(C)C)ncnc43)O[C@@H]2CO)cc1` [Puromycin], in experiment [2], the “Protease retention activity profile in the presence of inhibitors or adjuncts” value is “sensitivities”. Besides, the Comments entry in experiment [2] (setting [5]) is recorded as “Very modest”. Also, in experiment [2] (setting [6]), the Effect entry is “Inhibition”.

For `[Cl-].[Na+]` [NaCl, sodium chloride], in experiment [2] (setting [5]), the Comments result is on record as “Insensitivity”. Besides, in experiment [2] (setting [6]), the Effect entry was “No inhib”.

For the compound `CC(C)C[C@H](NC(=O)[C@H]1O[C@@H]1C(=O)O)C(=O)NCCCCN=C(N)N` [E-64], the “Comments: no inhibition/no effect to (concentration)” value (“Comments: no inhibition/no effect” below) in experiment [2] is “to 100 uM”. Moreover, the Effect result in experiment [2] (setting [6]) and in experiment [1] (setting [4]) was “No inhib” throughout. Moreover, the “Comments: no inhibition to (concentration)” value in experiment [1] (setting [3]) is reported as “to 100 uM”.

For the compound `O[C@@H](CS)[C@@H](O)CS` (racemic) [DTT, 1,4-Dithio-DL-threitol], the “Protease retention activity profile in the presence of inhibitors or adjuncts” value in experiment [2] is “independent”. Besides, the Comments result in experiment [2] (setting [5]) was “Very slightly”; in experiment [1] it was “Modest”. The Effect result in experiment [2] (setting [6]) and in experiment [1] (setting [4]) was “Augments” each time.

As to `c1cnc2c(c1)ccc1cccnc12` [1,10 Phenanthroline, 1,10-Phenathroline], the “Comments: no inhibition/no effect” value in experiment [2] is listed as “to 100 uM”. The Effect result in experiment [2] (setting [6]) and in experiment [1] (setting [4]) was “No inhib” each time. The “Comments: no inhibition to (concentration)” value in experiment [1] (setting [3]) is “to 100 uM”.

On to `CC(C)C[C@H](NC(=O)[C@@H](O)[C@H](N)Cc1ccccc1)C(=O)O` [Bestatin, N-[(2S,3R)-3-Amino-2-hydroxy-4-phenylbutyryl-L-leucine hydrochloride], for which the “Protease retention activity profile in the presence of inhibitors or adjuncts” value in experiment [2] is “sensitivities”. For the same compound, the Comments entry in experiment [2] (setting [5]) is listed as “Strong”. Also, the results for the Effect entry in experiment [2] (setting [6]) and in experiment [1] (setting [4]) were “Inhibition” and “No inhib”, respectively. For the same compound, the “Comments: no inhibition to (concentration)” value in experiment [1] (setting [3]) was “to 10 uM”.

Take `O=c1oc(Cl)c(Cl)c2ccccc12` [3,4 Diisocoumarin, 3,4-diisocoumarin]: the Comments entry in experiment [2] (setting [5]) was “Kills cells”; in experiment [1], “Strong”. In addition, the Effect result in experiment [2] (setting [6]) is “Inhibition(?)”; in experiment [1] (setting [4]), “Inhibition”.

Consider `Nc1ncnc2c1ncn2[C@@H]1O[C@H](COP(=O)(O)OP(=O)(O)OP(=O)(O)O)[C@@H](O)[C@H]1O` [ATP, Adenosine 5′-triphosphate], for which, in experiment [2], the “Protease retention activity profile in the presence of inhibitors or adjuncts” value was “independent” and the “Comments: no inhibition/no effect” value is given as “to 100 uM”. In experiment [2] (setting [6]), the Effect result is given as “No effect”.

`NCCc1ccc(S(=O)(=O)F)cc1` [AEBSF, 4-(2-Aminoethyl)benzenesulfonyl fluoride]: the Comments entry in experiment [1] is given as “Strong”. Also, in experiment [1] (setting [4]), the Effect entry is recorded as “Inhibition”.

`O=S(=O)(F)Cc1ccccc1` [PMSF, Phenylmethanesulfonyl fluoride]: in experiment [2], the “Comments: no inhibition/no effect” value is listed as “to 100 uM”. Also, the Effect result in experiment [2] (setting [6]) is reported as “No inhib”; in experiment [1] (setting [4]), “Inhibition”. Moreover, the Comments result in experiment [1] is “Strong”.

Turning to `CC(C)C[C@H](NP(=O)(O)O[C@@H]1O[C@@H](C)[C@H](O)[C@@H](O)[C@H]1O)C(=O)N[C@@H](Cc1c[nH]c2ccccc12)C(=O)O` [Phosphoramidon, N-(α-Rhamnopyranosyloxyhyrdoxyphosphinyl)-Leu-Trp disodium salt], the “Comments: no inhibition/no effect” value in experiment [2] is given as “to 100 uM”. The Effect entry in experiment [2] (setting [6]) and in experiment [1] (setting [4]) was “No inhib” in each case. Further, the “Comments: no inhibition to (concentration)” value in experiment [1] (setting [3]) is listed as “to 100 uM”.

As for `O.O.O=C([O-])CN(CCN(CC(=O)[O-])CC(=O)O)CC(=O)O.[Na+].[Na+]` [EDTA, Edetate disodium dihyrdrate], in experiment [2], the Comments result is “Also reduces”, the Effect result was “Inhibition” and the “Protease retention activity profile in the presence of inhibitors or adjuncts” value is recorded as “sensitivities”. Further, in experiment [1], the “Comments: no inhibition to (concentration)” value is recorded as “to 50 mM” and the Effect result was “No inhib”.

Turning to `NC(N)=NCCC[C@H](NC(=O)[C@@H]1CCCN1C(=O)[C@H](N)Cc1ccccc1)C(=O)CCl` [FPR-CMK], the Comments entry in experiment [1] is “Moderate”. For the same compound, the Effect result in experiment [1] (setting [4]) is “Inhibition”.

Take `CC(C)CC(=O)N[C@H](C(=O)N[C@H](C(=O)N[C@@H](CC(C)C)[C@@H](O)CC(=O)N[C@@H](C)C(=O)N[C@@H](CC(C)C)[C@@H](O)CC(=O)O)C(C)C)C(C)C` [Pepstatin, Isovaleryl-L-valyl-L-valyl-[(3S,4S)-4-amino-3-hydroxy-6-methylheptanoyl]-L-alanyl[93S,4S]-4-amino-3-hydroxy-6-methylheptanoicacid] (Isovaleryl-VV[Sta]A[Sta]-OH): the “Comments: no inhibition to (concentration)” value in experiment [1] (setting [3]) was “to 100 uM”. For the same compound, the Effect entry in experiment [1] (setting [4]) was “No inhib”.

For the compound Aprotinin, in experiment [1] (setting [3]), the “Comments: no inhibition to (concentration)” value is on record as “to 100 uM”. Besides, the Effect entry in experiment [1] (setting [4]) is “No inhib”.

(Values after patent US8476036B2, “Nonluminogenic assay for living cells” (Promega Corporation, priority 2004, dated 2013).)
